Measured values taken from US11103488B2, “Methods of treating autoimmune, respiratory and inflammatory disorders by inhalation of roflumilast N-oxide” (Incozen Therapeutics Pvt. Ltd., priority 2013, dated 2021).
Read-outs that look alike come from different tables or passages of the source.

Tests used:
[1] = Lung microsome metabolic stability, rat; format: in vitro ADME; details: rat lung microsomes, 1 μM test item, 60 minutes, NADPH
Procedure: (§1) Metabolic stability studies were conducted using rat, dog and human lung microsomes. The protocol for the studies with rat, dog, and human lung microsomes (from Xenotech, USA) is provided below.
(§2) 0.4 mg protein was preincubated with 2 mM NADPH (cofactor) in phosphate buffer (pH˜7.4) for 15 minutes at […] and then added with 1 μM test item and incubated further for 60 minutes in triplicate. The reaction mixture was terminated with methanol containing an internal standard and centrifuged further to analyze the test item remaining in the supernatant by LC-MS/MS. The percent parent compound remaining was calculated in comparison with similar samples terminated at 0 minutes.

[2] = 14-day repeat dose safety study; format: in vivo, Wistar Rats; details: Intratracheal, 1000 ug/kg/day, 14 days
Procedure: (§3) In order to determine the safety of roflumilast N-oxide by inhalation compared to roflumilast by oral administration, a 7- and 14-day repeat dose safety study was conducted according to the protocol given in Table 5 below.

[3] = Particle size distribution after micronization (Alpine Spiral Jet Mill); format: physicochemical; details: micronized
Source text: Laser diffraction measurement of particle size can use a dry method (wherein a suspension of the compound/salt in an airflow crosses the laser beam) or a wet method (wherein a suspension of the compound/salt in a liquid dispersing medium, such as isooctane (e.g. if compound is soluble in isooctane) or 0.1% Tween 80 in water, crosses the laser beam). With laser diffraction, particle size may be measured, for example, with a Malvern Mastersizer or Sympatec apparatus. For example, particle size measurement and/or analysis by laser diffraction can use any or all of (preferably all of) the following: a Malvern Mastersizer longbed version, a dispersing medium of 0.1% Tween 80 in water, a stir rate of ca. 1500 rpm, ca. 3 mins sonification prior to final dispersion and analysis, a 300 RF (Reverse Fourier) lens, and/or the Fraunhofer calculation with Malvern software. Unless specified otherwise, all d50 and d90 measurements are measured by laser diffraction using a wet method.
Provided below is an exemplary method used for micronization of roflumilast N-Oxide using an Alpine Spiral Jet Mill (HOSOKAWA). The process involved the following steps • 15 gm of Roflumilast N-oxide was weighed. • Main knob for compressed air supply was opened. • Adjusted venture pressure at 6.0 bar and ring pressure at 0.5 bar. • Roflumilast N-oxide was added at a feed rate of ˜200 mg/min manually through the hopper. • After completion of micronization, main air supply knob was turned off and micronized roflumilast N-oxide was collected

[4] = Lung microsome metabolic stability, dog; format: in vitro ADME; details: dog lung microsomes, 1 μM test item, 60 minutes, NADPH
Procedure: as §1, §2

[5] = test system: neutrophil infiltration (LPS-induced neutrophilia in BALF); assay: Lipopolysaccharide (LPS) induced pulmonary neutrophilia; format: in vivo, female Sprague-Dawley rat; details: for ED50: Rattus norvegicus, Neutrophil, inhaled or nasal; for Percent inhibition in neutrophil infiltration: intratracheal dry powder, 30 minutes before LPS
Procedure: Roflumilast was prepared as a suspension in a suitable vehicle for oral administration. For intratracheal administration, roflumilast or roflumilast N-oxide was prepared as a dry powder mixture and administered by using a dry powder Insufflator (Penn-Century, USA) Animals were anaesthetized with ketamine and LPS solution was administered intratracheally one hour after roflumilast (at a dose of 0.3, 1, 3, and 10 mg/kg orally), or 30 minutes after roflumilast (at a dose of 10, 30 and 100 μg/kg i.t) or roflumilast N-oxide administration (at a dose of 10, 30 and 100 μg/kg, i.t). 6 hours after LPS instillation, animals were exsanguinated under anaesthesia, and then trachea were cannulated and the lungs were lavaged with 5-ml aliquots of heparinised PBS (1 unit/ml) four times through tracheal cannula (total volume 20 ml). BAL (bronchoalveolar lavage) fluid was stored at 2-8° C. until assayed for total cell and differential leukocyte count. Bronchioalveolar fluid was centrifuged (500×g for 10 minutes) and the resulting cell pellet was resuspended in 0.5 ml of heparinized saline. The total number of white blood cells were determined in BAL fluid using a blood cell counter and were adjusted to 1×10^6 cell/ml. Differential cell count was calculated manually. One hundred microliters of the cell suspension was centrifuged using cytospin 3 to prepare a cell smear. The cell smear was stained with a blood staining solution for differentiation and slides were microscopically observed to identify eosinophil according to their morphological characteristics. The number of each cell type among 300 white blood cells in the cell smear was determined and expressed as a percentage. The total number of neutrophils in each BAL fluid was calculated.
Roflumilast and roflumilast N-oxide were administered intratracheally (i.t) at doses of 100, 30, and 10 μg/kg as 1:200; 1:500; and 1:1000 drug:lactose blends, respectively.

[6] = 7-day repeat dose safety study; format: in vivo, Wistar Rats
Procedure: as §3

Compound: O=C(Nc1c(Cl)c[n+]([O-])cc1Cl)c1ccc(OC(F)F)c(OCC2CC2)c1 [Roflumilast N-oxide]
- Percent Parent Compound Remaining, Rat [1]: 100.0%
- MORTALITY [2]: No Mortality
- Particle Size Distribution (PSD), D10 [3]: 0.777 μm
- Particle Size Distribution (PSD), D50 [3]: 1.564 μm
- Particle Size Distribution (PSD), D90 [3]: 3.021 μm
- Percent Parent Compound Remaining, Dog [4]: 98.3%
- ED50 ([5]; Intratracheal (Table 5), read-out: ED50 in Lipopolysaccharide induced pulmonary neutrophilia in female Sprague-Dawley rat model): 0.027 mg/kg
- ED50 ([5]; intratracheal administration, read-out: 50% inhibition (ED50) dose, neutrophil infiltration): 0.027 mg/kg
- Percent inhibition in neutrophil infiltration ([5]; 10 μg/kg): 37.52%
- Percent inhibition in neutrophil infiltration ([5]; 30 μg/kg): 49.66%
- Percent inhibition in neutrophil infiltration ([5]; 100 μg/kg): 69.48%
- MORTALITY ([6]; Intratracheal, 1000 ug/kg/day, 7 days): No Mortality
- Therapeutic window (safe dose relative to ED50) ([6]; intratracheal 1000 μg/kg versus ED50 of 27 μg/kg): more than 37 fold
- Overall safety in repeat dose study ([6]; intratracheal administration, 1000 μg/kg): found to be safe
